{
  "source": "patent US20080009418A1",
  "about": "“Selective Inhibitors” (Alchemia LTD., priority 2004, published 2008)",
  "key": {"[1]": {"biological_target": "T1, Human neuropeptide Y (NPY-Y1) (Homo sapiens, UniProt P25929)", "T1 construct": "purchased Perkin Elmer Biosignal", "T1 sequence (P25929 1-384)": "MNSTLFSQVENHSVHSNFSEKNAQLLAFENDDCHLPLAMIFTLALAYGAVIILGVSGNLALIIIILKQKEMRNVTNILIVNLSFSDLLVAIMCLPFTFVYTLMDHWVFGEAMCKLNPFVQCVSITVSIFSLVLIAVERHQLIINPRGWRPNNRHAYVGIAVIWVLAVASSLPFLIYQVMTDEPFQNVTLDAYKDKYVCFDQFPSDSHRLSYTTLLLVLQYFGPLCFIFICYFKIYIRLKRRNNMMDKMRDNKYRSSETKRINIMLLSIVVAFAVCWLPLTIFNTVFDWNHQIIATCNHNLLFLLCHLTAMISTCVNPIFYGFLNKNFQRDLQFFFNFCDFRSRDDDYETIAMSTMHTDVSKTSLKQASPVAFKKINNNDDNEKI", "assay": "Radioligand binding, human neuropeptide Y NPY-Y1 membranes, FlashPlate, [125I]-PYY", "conditions": "compound at 10 μM, [125I]-PYY", "method_in_brief": "(§1)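 Cloned human receptor membranes were coated onto FlashPlate wells and incubated with radioligand and compound (added from a 0.5 mM DMSO daughter plate) for 1 hour at room temperature in the dark. Scintillation counting gave percent inhibition, with DMSO defining total and reference ligand defining non-specific binding.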"}, "Human μ-opioid (MOP)": {"biological_target": "T2, Human μ-opioid (MOP) (Homo sapiens, UniProt P35372)", "T2 construct": "purchased Perkin Elmer Biosignal", "T2 sequence (P35372 whole entry)": "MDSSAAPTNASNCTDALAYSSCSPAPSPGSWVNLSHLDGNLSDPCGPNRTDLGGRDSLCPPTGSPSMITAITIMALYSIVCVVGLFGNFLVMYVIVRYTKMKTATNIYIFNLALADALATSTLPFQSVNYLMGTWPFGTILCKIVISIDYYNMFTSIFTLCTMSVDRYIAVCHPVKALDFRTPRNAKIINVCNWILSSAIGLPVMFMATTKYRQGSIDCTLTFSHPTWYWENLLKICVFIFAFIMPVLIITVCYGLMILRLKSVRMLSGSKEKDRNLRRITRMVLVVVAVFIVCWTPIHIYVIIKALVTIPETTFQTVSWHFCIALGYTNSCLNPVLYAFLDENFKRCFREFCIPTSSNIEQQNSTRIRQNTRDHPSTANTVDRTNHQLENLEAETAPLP", "assay": "Radioligand binding, human μ-opioid (MOP) membranes, FlashPlate, [3H]-Naloxone", "conditions": "compound at 10 μM, [3H]-Naloxone", "method_in_brief": "as §1"}, "Mouse urotensin (mUR2)": {"biological_target": "T3, Mouse urotensin (mUR2) (Mus musculus, UniProt Q8VIH9)", "T3 construct": "purchased Perkin Elmer Biosignal", "T3 sequence (Q8VIH9 1-385)": "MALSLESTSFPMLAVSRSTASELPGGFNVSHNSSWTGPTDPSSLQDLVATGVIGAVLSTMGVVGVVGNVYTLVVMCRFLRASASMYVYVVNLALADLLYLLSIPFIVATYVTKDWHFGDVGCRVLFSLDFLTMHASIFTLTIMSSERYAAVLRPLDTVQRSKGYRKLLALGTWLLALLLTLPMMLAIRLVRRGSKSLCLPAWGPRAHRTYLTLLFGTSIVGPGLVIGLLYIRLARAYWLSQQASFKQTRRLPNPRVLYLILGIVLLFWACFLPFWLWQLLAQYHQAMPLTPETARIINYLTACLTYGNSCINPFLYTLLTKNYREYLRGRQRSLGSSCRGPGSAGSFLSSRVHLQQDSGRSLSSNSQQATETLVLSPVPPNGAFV", "assay": "Radioligand binding, mouse urotensin mUR2 membranes, FlashPlate, [125I]-Urotensin II", "conditions": "compound at 10 μM, [125I]-Urotensin II", "method_in_brief": "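Cloned mouse urotensin (mUR2) receptor membranes from Perkin Elmer Biosignal were immobilized in FlashPlate microplates using a proprietary coating. Each well got 19.5 μl buffer, then 0.5 μl of DMSO, reference ligand, or compound. Adding 5 μl of [125I]-Urotensin II, diluted to 5× final concentration in binding buffer, started binding. Plates were sealed with TopSeal-A and incubated 1 hour at room temperature in the dark. Wells were counted for 30 seconds each on a TopCount after a 60-second delay, and percentage inhibition was calculated.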"}, "Human δ-opioid (DOP)": {"biological_target": "T4, Human δ-opioid (DOP) (Homo sapiens, UniProt P41143)", "T4 construct": "purchased Perkin Elmer Biosignal", "T4 sequence (P41143 whole entry)": "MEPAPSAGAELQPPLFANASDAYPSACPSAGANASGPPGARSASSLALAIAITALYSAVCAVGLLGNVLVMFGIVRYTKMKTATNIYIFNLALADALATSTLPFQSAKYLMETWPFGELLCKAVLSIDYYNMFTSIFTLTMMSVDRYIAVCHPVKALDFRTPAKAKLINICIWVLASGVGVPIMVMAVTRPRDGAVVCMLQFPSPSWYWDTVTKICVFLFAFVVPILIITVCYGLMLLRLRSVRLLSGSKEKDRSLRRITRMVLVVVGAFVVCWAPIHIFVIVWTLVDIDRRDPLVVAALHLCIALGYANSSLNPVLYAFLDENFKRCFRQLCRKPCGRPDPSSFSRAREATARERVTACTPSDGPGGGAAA", "assay": "Radioligand binding, human δ-opioid (DOP) membranes, FlashPlate, [3H]-Bremazocine", "conditions": "compound at 10 μM, [3H]-Bremazocine", "method_in_brief": "as §1"}, "Human κ-Opioid (KOP)": {"biological_target": "T5, Human κ-Opioid (KOP) (Homo sapiens, UniProt P41145)", "T5 construct": "purchased Perkin Elmer Biosignal", "T5 sequence (P41145 whole entry)": "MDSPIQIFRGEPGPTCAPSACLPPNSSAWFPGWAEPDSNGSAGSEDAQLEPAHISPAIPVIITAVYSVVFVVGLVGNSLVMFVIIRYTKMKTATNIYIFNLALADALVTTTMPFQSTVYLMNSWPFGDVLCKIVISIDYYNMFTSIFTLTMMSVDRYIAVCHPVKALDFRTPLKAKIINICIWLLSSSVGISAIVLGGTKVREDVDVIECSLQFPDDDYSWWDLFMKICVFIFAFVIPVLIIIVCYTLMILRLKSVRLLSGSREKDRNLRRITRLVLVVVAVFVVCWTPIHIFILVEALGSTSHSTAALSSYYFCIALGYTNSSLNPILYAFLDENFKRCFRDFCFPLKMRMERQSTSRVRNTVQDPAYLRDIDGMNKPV", "assay": "Radioligand binding, human κ-opioid (KOP) membranes, filtration, [3H]-Diprenorphine", "conditions": "compound at 10 μM, [3H]-Diprenorphine", "method_in_brief": "(§2)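 Filtration binding on cloned human receptor membranes (1 Unit/well), [125I]-Substance P for NK1 and [3H]-Diprenorphine for KOP, 1 h at room temperature. Filters PEI-presoaked, washed with cold 50 mM Tris-HCl pH 7.4, counted by scintillation; percent inhibition calculated, reference ligand defining non-specific binding.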"}, "Human Melanocortin (MC3)": {"biological_target": "T6, Human Melanocortin (MC3) (Homo sapiens, UniProt P41968)", "T6 construct": "purchased Perkin Elmer Biosignal", "T6 sequence (P41968 whole entry)": "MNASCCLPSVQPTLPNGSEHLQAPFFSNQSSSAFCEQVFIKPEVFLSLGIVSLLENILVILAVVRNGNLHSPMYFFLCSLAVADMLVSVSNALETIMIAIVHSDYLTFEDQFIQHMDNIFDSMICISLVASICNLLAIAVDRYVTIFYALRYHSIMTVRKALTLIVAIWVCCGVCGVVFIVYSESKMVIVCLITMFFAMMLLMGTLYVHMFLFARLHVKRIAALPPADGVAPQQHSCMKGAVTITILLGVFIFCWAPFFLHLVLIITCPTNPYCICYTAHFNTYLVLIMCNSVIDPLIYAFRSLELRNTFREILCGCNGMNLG", "assay": "Radioligand binding, human melanocortin MC3 membranes, FlashPlate, [125I]-NDP-αMSH", "conditions": "compound at 10 μM, [125I]-NDP-αMSH", "method_in_brief": "as §1"}, "[2]": {"biological_target": "T7, Human melanin-concentrating hormone (MCH1) (Homo sapiens, UniProt Q99705)", "T7 construct": "purchased Perkin Elmer Biosignal", "T7 sequence (Q99705 whole entry)": "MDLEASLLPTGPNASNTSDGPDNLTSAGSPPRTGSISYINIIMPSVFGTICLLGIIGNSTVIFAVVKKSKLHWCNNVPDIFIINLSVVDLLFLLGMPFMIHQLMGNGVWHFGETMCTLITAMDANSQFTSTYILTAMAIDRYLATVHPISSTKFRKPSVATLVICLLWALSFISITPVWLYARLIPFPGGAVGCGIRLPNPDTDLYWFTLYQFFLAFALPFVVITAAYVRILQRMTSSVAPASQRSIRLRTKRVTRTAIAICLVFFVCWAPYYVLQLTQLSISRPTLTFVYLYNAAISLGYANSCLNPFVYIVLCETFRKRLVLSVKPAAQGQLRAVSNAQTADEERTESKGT", "assay": "Radioligand binding, human melanin-concentrating hormone MCH1 membranes, FlashPlate, [125I]-S36057", "conditions": "compound at 10 μM", "method_in_brief": "as §1"}, "Human melanocortin (MC5)": {"biological_target": "T8, Human melanocortin (MC5) (Homo sapiens, UniProt P33032)", "T8 construct": "purchased Perkin Elmer Biosignal", "T8 sequence (P33032 whole entry)": "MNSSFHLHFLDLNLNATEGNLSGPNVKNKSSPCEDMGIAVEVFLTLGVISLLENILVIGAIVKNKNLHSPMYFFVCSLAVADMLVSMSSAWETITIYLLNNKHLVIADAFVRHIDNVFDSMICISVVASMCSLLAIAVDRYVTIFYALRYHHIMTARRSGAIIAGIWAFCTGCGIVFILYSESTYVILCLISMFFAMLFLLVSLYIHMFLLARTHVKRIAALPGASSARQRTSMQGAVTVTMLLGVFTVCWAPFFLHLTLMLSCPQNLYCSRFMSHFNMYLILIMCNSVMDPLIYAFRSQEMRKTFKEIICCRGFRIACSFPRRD", "assay": "Radioligand binding, human melanocortin MC5 membranes, FlashPlate, [125I]-NDP-αMSH", "conditions": "compound at 10 μM, [125I]-NDP-αMSH", "method_in_brief": "as §1"}, "Human Melanocortin (MC4)": {"biological_target": "T9, Human Melanocortin (MC4) (Homo sapiens, UniProt P32245)", "T9 construct": "purchased Perkin Elmer Biosignal", "T9 sequence (P32245 whole entry)": "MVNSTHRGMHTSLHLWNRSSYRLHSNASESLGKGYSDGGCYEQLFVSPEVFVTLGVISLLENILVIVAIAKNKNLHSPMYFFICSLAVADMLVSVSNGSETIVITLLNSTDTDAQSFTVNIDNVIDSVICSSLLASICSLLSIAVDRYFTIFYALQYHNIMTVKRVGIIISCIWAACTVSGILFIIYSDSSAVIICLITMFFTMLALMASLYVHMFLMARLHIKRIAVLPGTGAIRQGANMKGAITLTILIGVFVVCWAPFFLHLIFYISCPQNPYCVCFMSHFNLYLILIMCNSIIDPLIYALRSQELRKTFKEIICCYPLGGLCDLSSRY", "assay": "Radioligand binding, human melanocortin MC4 membranes, FlashPlate, [125I]-NDP-αMSH", "conditions": "compound at 10 μM, [125I]-NDP-αMSH", "method_in_brief": "as §1"}, "Human neurokinin (NK1)": {"biological_target": "T10, Human neurokinin (NK1) (Homo sapiens, UniProt P25103)", "T10 construct": "purchased Perkin Elmer Biosignal", "T10 sequence (P25103 whole entry)": "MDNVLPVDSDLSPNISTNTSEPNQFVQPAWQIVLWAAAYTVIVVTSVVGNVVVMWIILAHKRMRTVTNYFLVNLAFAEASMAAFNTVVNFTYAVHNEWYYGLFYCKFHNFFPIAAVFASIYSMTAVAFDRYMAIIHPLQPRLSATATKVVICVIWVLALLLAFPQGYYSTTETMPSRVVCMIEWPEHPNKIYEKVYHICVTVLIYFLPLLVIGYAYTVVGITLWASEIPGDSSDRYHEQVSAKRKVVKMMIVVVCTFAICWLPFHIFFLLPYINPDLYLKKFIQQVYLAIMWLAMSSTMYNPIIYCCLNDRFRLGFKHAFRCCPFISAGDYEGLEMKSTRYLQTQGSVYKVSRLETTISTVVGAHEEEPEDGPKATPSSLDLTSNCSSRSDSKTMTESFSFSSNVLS", "assay": "Radioligand binding, human neurokinin NK1 membranes, filtration, [125I]-Substance P", "conditions": "compound at 10 μM, [125I]-Substance P", "method_in_brief": "as §2"}, "Human opioid (ORL1)": {"biological_target": "T11, Human opioid (ORL1) (Homo sapiens, UniProt P41146)", "T11 construct": "purchased Perkin Elmer Biosignal", "T11 sequence (P41146 whole entry)": "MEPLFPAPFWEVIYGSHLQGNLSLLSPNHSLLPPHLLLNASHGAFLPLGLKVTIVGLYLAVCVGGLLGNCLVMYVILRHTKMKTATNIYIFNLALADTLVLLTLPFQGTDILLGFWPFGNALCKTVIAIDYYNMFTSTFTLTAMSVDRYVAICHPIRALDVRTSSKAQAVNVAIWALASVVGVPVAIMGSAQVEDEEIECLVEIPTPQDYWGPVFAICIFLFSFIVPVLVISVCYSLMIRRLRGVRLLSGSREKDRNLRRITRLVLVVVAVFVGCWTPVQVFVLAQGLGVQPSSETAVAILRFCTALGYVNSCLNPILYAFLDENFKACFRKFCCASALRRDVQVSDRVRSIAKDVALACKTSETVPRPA", "assay": "Radioligand binding, human opioid ORL1 membranes, FlashPlate, [125I]-Nociceptin", "conditions": "compound at 10 μM, [125I]-Nociceptin", "method_in_brief": "as §1"}},
  "data": [
    {"smiles": "CO[C@H]1[C@H](O)[C@@H](COCc2ccccc2)OC(OCc2ccc(Cl)cc2)[C@@H]1NC(=O)CCNC(=N)N", "note": "(stereo partly drawn) [compound 102]", "values": [
      {"measurement": "A9 radioligand binding, percentage inhibition", "setting": "[1]", "value": "− (“−” indicates less than 50% inhibition at 10 μM)"},
      {"measurement": "A7 radioligand binding, percentage inhibition", "setting": "Human μ-opioid (MOP)", "value": "− (“−” indicates less than 50% inhibition at 10 μM)"},
      {"measurement": "A11 radioligand binding, percentage inhibition", "setting": "Mouse urotensin (mUR2)", "value": "− (“−” indicates less than 50% inhibition at 10 μM)"},
      {"measurement": "A1 radioligand binding, percentage inhibition", "setting": "Human δ-opioid (DOP)", "value": "− (“−” indicates less than 50% inhibition at 10 μM)"},
      {"measurement": "A2 radioligand binding, percentage inhibition", "setting": "Human κ-Opioid (KOP)", "value": "− (“−” indicates less than 50% inhibition at 10 μM)"},
      {"measurement": "A3 radioligand binding, percentage inhibition", "setting": "Human Melanocortin (MC3)", "value": "− (“−” indicates less than 50% inhibition at 10 μM)"},
      {"measurement": "A6 radioligand binding, percentage inhibition", "setting": "[2]; [125I]-S36057", "value": "− (“−” indicates less than 50% inhibition at 10 μM)"},
      {"measurement": "A5 radioligand binding, percentage inhibition", "setting": "Human melanocortin (MC5)", "value": "+ (“+” indicates greater than 50% inhibition at 10 μM)"},
      {"measurement": "A4 radioligand binding, percentage inhibition", "setting": "Human Melanocortin (MC4)", "value": "− (“−” indicates less than 50% inhibition at 10 μM)"},
      {"measurement": "A8 radioligand binding, percentage inhibition", "setting": "Human neurokinin (NK1)", "value": "− (“−” indicates less than 50% inhibition at 10 μM)"},
      {"measurement": "A10 radioligand binding, percentage inhibition", "setting": "Human opioid (ORL1)", "value": "− (“−” indicates less than 50% inhibition at 10 μM)"}
    ]},
    {"smiles": "CSC1OC(COCc2cccc(N)c2)C(O)C(OCc2ccc(Cl)cc2)C1NC(=O)C=Cc1ccccc1", "note": "(stereo not drawn) [compound 329]", "values": [
      {"measurement": "A9: inhibition of radioligand binding, human neuropeptide Y (NPY-Y1)", "setting": "[1]", "value": "− (“−” indicates less than 50% inhibition at 10 μM)"},
      {"measurement": "A7: inhibition of radioligand binding, human μ-opioid (MOP)", "setting": "Human μ-opioid (MOP)", "value": "− (“−” indicates less than 50% inhibition at 10 μM)"},
      {"measurement": "A11: inhibition of radioligand binding, mouse urotensin (mUR2)", "setting": "Mouse urotensin (mUR2)", "value": "− (“−” indicates less than 50% inhibition at 10 μM)"},
      {"measurement": "A1: inhibition of radioligand binding, human δ-opioid (DOP)", "setting": "Human δ-opioid (DOP)", "value": "− (“−” indicates less than 50% inhibition at 10 μM)"},
      {"measurement": "A2: inhibition of radioligand binding, human κ-opioid (KOP)", "setting": "Human κ-Opioid (KOP)", "value": "− (“−” indicates less than 50% inhibition at 10 μM)"},
      {"measurement": "A3: inhibition of radioligand binding, human melanocortin (MC3)", "setting": "Human Melanocortin (MC3)", "value": "− (“−” indicates less than 50% inhibition at 10 μM)"},
      {"measurement": "A6: inhibition of radioligand binding, human melanin-concentrating hormone (MCH1)", "setting": "[2]; [125I]-S36057", "value": "− (“−” indicates less than 50% inhibition at 10 μM)"},
      {"measurement": "A5: inhibition of radioligand binding, human melanocortin (MC5)", "setting": "Human melanocortin (MC5)", "value": "− (“−” indicates less than 50% inhibition at 10 μM)"},
      {"measurement": "A4: inhibition of radioligand binding, human melanocortin (MC4)", "setting": "Human Melanocortin (MC4)", "value": "− (“−” indicates less than 50% inhibition at 10 μM)"},
      {"measurement": "A8: inhibition of radioligand binding, human neurokinin (NK1)", "setting": "Human neurokinin (NK1)", "value": "+ (“+” indicates greater than 50% inhibition at 10 μM)"},
      {"measurement": "A10: inhibition of radioligand binding, human opioid (ORL1)", "setting": "Human opioid (ORL1)", "value": "− (“−” indicates less than 50% inhibition at 10 μM)"}
    ]},
    {"smiles": "COCC1OC(OCc2ccc3ccccc3c2)C(NC(=O)CCNC(=N)N)C(OCc2ccc3ccccc3c2)C1O", "note": "(stereo not drawn) [compound 249]", "values": [
      {"measurement": "A9: inhibition of radioligand binding", "setting": "[1]; FlashPlate", "value": "− (“−” indicates less than 50% inhibition at 10 μM)"},
      {"measurement": "A7: inhibition of radioligand binding", "setting": "Human μ-opioid (MOP); FlashPlate", "value": "+ (“+” indicates greater than 50% inhibition at 10 μM)"},
      {"measurement": "A11: inhibition of radioligand binding", "setting": "Mouse urotensin (mUR2); FlashPlate", "value": "− (“−” indicates less than 50% inhibition at 10 μM)"},
      {"measurement": "A1: inhibition of radioligand binding", "setting": "Human δ-opioid (DOP); FlashPlate", "value": "− (“−” indicates less than 50% inhibition at 10 μM)"},
      {"measurement": "A2: inhibition of radioligand binding", "setting": "Human κ-Opioid (KOP); filtration", "value": "− (“−” indicates less than 50% inhibition at 10 μM)"},
      {"measurement": "A3: inhibition of radioligand binding", "setting": "Human Melanocortin (MC3); FlashPlate", "value": "+ (“+” indicates greater than 50% inhibition at 10 μM)"},
      {"measurement": "A6: inhibition of radioligand binding", "setting": "[2]; [125I]-S36057, FlashPlate", "value": "+ (“+” indicates greater than 50% inhibition at 10 μM)"},
      {"measurement": "A5: inhibition of radioligand binding", "setting": "Human melanocortin (MC5); FlashPlate", "value": "+ (“+” indicates greater than 50% inhibition at 10 μM)"},
      {"measurement": "A4: inhibition of radioligand binding", "setting": "Human Melanocortin (MC4); FlashPlate", "value": "+ (“+” indicates greater than 50% inhibition at 10 μM)"},
      {"measurement": "A8: inhibition of radioligand binding", "setting": "Human neurokinin (NK1); filtration", "value": "+ (“+” indicates greater than 50% inhibition at 10 μM)"},
      {"measurement": "A10: inhibition of radioligand binding", "setting": "Human opioid (ORL1); FlashPlate", "value": "− (“−” indicates less than 50% inhibition at 10 μM)"}
    ]}
  ]
}
